Test results from patent US20210113560A1, “METHOD OF TREATING FIBROTIC DISEASE” (BLADE THERAPEUTICS, INC., priority 2018, published 2021).
Peptide text beside a SMILES is read from it. * marks the point of attachment. Cbz = O=C(OCc1ccccc1)*

How the values were obtained:
CAPN2 = target: T1, CAPN2 (Homo sapiens, UniProt P17655); experiment: Activity based probe (ABP) off-rate assay of CAPN2 inhibitors, SDS-PAGE readout; format: binding; conditions: t1/2=0.693/k from first order decay fit; complex diluted ten-fold into 10 uM ABP; time points 0-24 hours
T1 sequence (P17655 20-700 limits assumed): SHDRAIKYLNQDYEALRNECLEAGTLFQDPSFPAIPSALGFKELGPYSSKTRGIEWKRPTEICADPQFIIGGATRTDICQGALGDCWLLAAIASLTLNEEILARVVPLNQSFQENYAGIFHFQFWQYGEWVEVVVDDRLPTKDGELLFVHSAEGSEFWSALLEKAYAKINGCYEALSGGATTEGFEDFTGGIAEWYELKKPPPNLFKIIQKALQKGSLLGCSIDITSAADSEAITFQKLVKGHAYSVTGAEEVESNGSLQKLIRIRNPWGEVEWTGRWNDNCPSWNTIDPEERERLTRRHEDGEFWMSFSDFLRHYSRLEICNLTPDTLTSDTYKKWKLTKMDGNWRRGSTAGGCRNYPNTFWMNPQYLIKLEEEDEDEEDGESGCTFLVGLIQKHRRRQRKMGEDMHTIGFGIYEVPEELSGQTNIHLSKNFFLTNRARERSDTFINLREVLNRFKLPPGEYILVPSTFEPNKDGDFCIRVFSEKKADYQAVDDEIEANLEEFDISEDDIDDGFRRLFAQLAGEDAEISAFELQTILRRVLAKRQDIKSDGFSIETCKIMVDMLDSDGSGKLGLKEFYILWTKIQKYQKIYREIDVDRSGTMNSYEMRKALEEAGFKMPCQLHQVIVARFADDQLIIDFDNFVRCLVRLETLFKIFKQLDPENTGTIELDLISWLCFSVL
T1 sequence (P04632 1-268 partner): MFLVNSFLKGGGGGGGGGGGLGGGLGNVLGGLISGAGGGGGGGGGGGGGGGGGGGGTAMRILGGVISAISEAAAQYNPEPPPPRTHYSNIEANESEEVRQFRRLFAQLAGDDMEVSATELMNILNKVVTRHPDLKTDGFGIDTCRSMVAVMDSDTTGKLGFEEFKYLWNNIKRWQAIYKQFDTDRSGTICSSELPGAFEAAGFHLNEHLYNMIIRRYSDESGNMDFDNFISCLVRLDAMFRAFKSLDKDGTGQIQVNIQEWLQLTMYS
Description: FIG. 2: Dissociation of Compound 10 from calpain 2 (CAPN2). Complexes of Compound 10 with CAPN2 were generated, followed by dilution into an excess of Compound 29 (a probe for unbound CAPN2). Samples were taken at the time points (lanes 1-6 for 0, 1, 2, 4, 7 and 24 hr respectively) and analyzed by gel electrophoresis to determine the amount of Compound 29 probe incorporation. Lanes 7 and 8 reflect negative and positive controls for probe labeling, respectively. The dissociation rate and half-life for the Compound 10-CAPN2 complex was then calculated.
A fluorescently labeled irreversible activity based probe (ABP) was used to measure off rates of CAPN2 inhibitors as follows. The ABP molecule contains a fluoro-methyl ketone warhead that irreversibly reacts with the active site cysteine nucleophile of CAPN enzymes. ABP is also labeled with the Alexa 647 fluorophore which allows for sensitive quantitation of the CAPN2.ABP adduct.
The assay is typically performed by pre-incubating 2 uM CAPN2 with […] test inhibitor for 30 minutes in assay buffer (50 mM Tris-HCl, 100 mM NaCl, 2 mM CaCl2, 1 mM DTT, 0.02% Brij-35, pH7.4). This incubation mixture (containing the CAPN2.inhibitor complex) is diluted ten-fold into the same assay buffer containing 10 uM ABP. This is time zero at which an aliquot is immediately withdrawn and quenched by adding denaturing SDS-PAGE loading buffer and heating at 95° C. for 5 minutes. Additional aliquots are typically withdrawn and quenched at time points of 0.5, 1, 2, 4, 7, 24 hours. Quenched samples are stored frozen at −80° C. until SDS-PAGE analysis.
For a given test inhibitor, all time points are run on the same gel with the following two control samples. An assay minimum control is prepared by pre-incubating 2 uM CAPN2 in assay buffer for 1 hour. The incubation mixture is diluted, ten-fold into the same assay buffer containing 10 uM ABP, reacted for 30 minutes and quenched. After the initial 1 hour incubation, the CAPN2 enzyme is autolytically degraded and should generate little to no signal. An assay maximum control is prepared by adding 10 uM ABP to 0.2 uM CAPN2 in assay buffer and incubating for 30 minutes and quenching.
After SDS-PAGE, the gel is scanned using a LAS4000 ImageQuant platform to quantify the Alexa 647 intensity at ˜75 kDa (molecular weight of full length activated CAPN2). The minimum and maximum controls on each gel are used to calculate percentage of test compound bound at each time point. […] Using the equation t1/2=0.693/k, the off rate (k) is converted to and reported as CAPN2.inhibitor complex half-life (t1/2).

CatK = target: T2, CatK (Homo sapiens, UniProt P43235); experiment: Dilution of enzyme-inhibitor complex into substrate, reactivation over time (FIG. 1); format: biochemical; conditions: compared to unbound CatK control
T2 sequence (P43235 115-329): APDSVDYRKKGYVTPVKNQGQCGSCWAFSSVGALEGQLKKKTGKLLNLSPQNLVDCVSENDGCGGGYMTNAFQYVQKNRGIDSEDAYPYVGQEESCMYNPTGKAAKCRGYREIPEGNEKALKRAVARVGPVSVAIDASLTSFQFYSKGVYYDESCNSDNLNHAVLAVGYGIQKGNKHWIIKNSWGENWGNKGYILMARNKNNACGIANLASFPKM
Description: (§1) FIG. 1: Dissociation of Compound 10 from calpain 2 (CAPN2). Complexes of Compound 10 with either CatK or CAPN2 were generated, followed by dilution into substrate-containing assay wells to initiate data collection. Reactivation of the target enzymes due to dissociation of the enzyme-inhibitor complexes was observed as a function of time. […] CAPN2 control (upper dashed line). Thus, inhibition of CAPN2 by Compound 10 is retained even in the absence of excess Compound 10. Further, this effect is selective and provides a basis for specific action of Compound 10 against CAPN2.

calpain 2 (CAPN2) = target: T3, calpain 2 (CAPN2) (Homo sapiens, UniProt P17655); experiment: as above; format: biochemical; conditions: relative to unbound CAPN2 control; absence of excess compound
T3 sequence (P17655 20-700 limits assumed): T1 sequence (P17655 20-700 limits assumed)
T3 sequence (P04632 1-268 partner): T1 sequence (P04632 1-268 partner)
Description: as §1

| Structure (SMILES) | Half-life of Compound-CAPN2 Complex (CAPN2) [h] | Reactivation of CatK after dilution of the CatK-compound complex (CatK) | Retention of CAPN2 inhibition after dilution of the complex (calpain 2 (CAPN2)) |
| --- | --- | --- | --- |
| NC(=O)C(=O)C(Cc1ccccc1)NC(=O)c1cn(C(F)F)nc1-c1cccc2cnccc12 (centres unmarked) [Compound 1] | 2.8 |  |  |
| NC(=O)C(=O)C(Cc1ccccc1)NC(=O)c1nsnc1-c1cccc2c1OC(F)(F)O2 (centres unmarked) [Compound 2] | 9.63 |  |  |
| Cc1cc(C(=O)NC(Cc2ccccc2)C(=O)C(N)=O)n(-c2ccccn2)n1 (centres unmarked) [Compound 5] | 0.467 |  |  |
| O=C(NC1CC1)C(=O)C(Cc1ccccc1)NC(=O)c1nsnc1-c1ccccc1 (centres unmarked) [Compound 6] | 0.383 |  |  |
| O=CC(Cc1ccccc1)NC(=O)c1nsnc1-c1ccccc1 (centres unmarked) [Compound 7] | 1.05 |  |  |
| NC(=O)C(=O)C(Cc1ccccc1)NC(=O)c1c(C(F)(F)F)ccc(Cl)c1F (centres unmarked) [Compound 8] | 2.4 |  |  |
| O=C(NC1CC1)C(=O)C(Cc1ccccc1)NC(=O)[C@H]1CCC(=O)N1Cc1ccccc1 (some centres unmarked) [Compound 9] | 0.083 |  |  |
| Cc1nc(-c2ccccc2F)c(C(=O)NC(Cc2ccccc2)C(=O)C(N)=O)o1 (centres unmarked) [Compound 10] | 2.7 | almost an immediate reactivation | inhibition is retained |
| Cc1nc(-c2cccc(F)c2)c(C(=O)NC(Cc2ccccc2)C(=O)C(N)=O)o1 (centres unmarked) [Compound 11] | 3.53 |  |  |
| NC(=O)C(=O)C(Cc1ccccc1)NC(=O)c1cn(C2CC2)nc1-c1ccccc1 (centres unmarked) [Compound 12] | 0.333 |  |  |
| Cn1cc(C(=O)NC(Cc2ccccc2)C(=O)C(N)=O)c(-c2cccc(F)c2)n1 (centres unmarked) [Compound 13] | 0.633 |  |  |
| Cc1nc(-c2ccccc2)c(C(=O)NC(Cc2ccccc2)C(=O)C(N)=O)o1 (centres unmarked) [Compound 14] | 5.4 |  |  |
| Cn1cc(C(=O)NC(Cc2ccccc2)C(=O)C(N)=O)c(-c2ccccc2F)n1 (centres unmarked) [Compound 16] | 0.867 |  |  |
| NC(=O)C(=O)C(Cc1ccccc1)NC(=O)c1cn(C(F)F)nc1-c1ccccc1 (centres unmarked) [Compound 17] | 2.1 |  |  |
| NC(=O)C(=O)C(Cc1ccccc1)NC(=O)c1nsnc1-c1ccccc1F (centres unmarked) [Compound 18] | 5.5 |  |  |
| NC(=O)C(=O)C(Cc1ccccc1)NC(=O)c1nsnc1-c1cccc(F)c1 (centres unmarked) [Compound 19] | 2.8 |  |  |
| Cc1cc(C(=O)N[C@@H](Cc2ccccc2)C(=O)C(N)=O)n(-c2ccccc2)n1 [Compound 21] | 2.7 |  |  |
| CC[C@H](NC(=O)[C@H](CC(C)C)NC(=O)OCc1ccccc1)C(=O)C(=O)NCc1cc(OC)cc(OC)c1 [Compound 23] | 1 |  |  |
| NC(=O)C(=O)C(Cc1ccccc1)NC(=O)c1nsnc1-c1ccccc1 (centres unmarked) [Compound 24] | 6.6 |  |  |
| NC(=O)C(=O)[C@H](Cc1ccccc1)NC(=O)c1cnoc1-c1ccccc1 [Compound 25] | 1.6 |  |  |
| Cn1cc(C(=O)N[C@@H](Cc2ccccc2)C(=O)C(N)=O)c(-c2ccccc2)n1 [Compound 26] | 0.483 |  |  |
| CCN(CC)Cc1ccc(/C=C/c2ccccc2C(=O)NC(Cc2ccccc2)C(=O)C(N)=O)cc1 (centres unmarked) [Compound 27] | 0.9 |  |  |
| CC(C)[C@H](NC(=O)OCc1ccccc1)C(=O)N[C@H](C=O)Cc1ccccc1 [Compound 28] (Cbz-Val-Phe-aldehyde) | 3 |  |  |

Further lines, results first:

| Half-life of Compound-CAPN2 Complex (CAPN2) [h] | Reactivation of CatK after dilution of the CatK-compound complex (CatK) | Retention of CAPN2 inhibition after dilution of the complex (calpain 2 (CAPN2)) | Structure (SMILES) |
| --- | --- | --- | --- |
| 7 |  |  | CC(C)[C@@H](NC(=O)CCCNC(=O)CCCCCC1(C)C(/C=C/C=C/C=C2/N(CCCS(=O)(=O)O)c3ccccc3C2(C)C)=[N+](CCCS(=O)(=O)O)c2ccc(S(=O)(=O)O)cc21)C(=O)NC(Cc1ccccc1)C(=O)CF (some centres unmarked) [Compound 29] |
| 17.77 |  |  | CC(C)C(NC(=O)OCc1ccccc1)C(=O)NC(Cc1ccccc1)C(=O)C(N)=O (centres unmarked) [Compound 30] |
| 4.87 |  |  | NC(=O)C(=O)C(Cc1ccccc1)NC(=O)c1nsnc1-c1cccc2c1OC(F)(F)O2 (centres unmarked) [Compound 31] |
| 2.32 |  |  | NC(=O)C(=O)C(Cc1ccccc1)NC(=O)c1nsnc1-c1ccccn1 (centres unmarked) [Compound 32] |
| 1.87 |  |  | O=C(O)C(=O)C(Cc1ccccc1)NC(=O)c1nsnc1-c1ccccc1 (centres unmarked) [Compound 33] |
| 1.27 |  |  | NC(=O)C(=O)C(Cc1ccccc1)NC(=O)c1nsnc1-c1ccncn1 (centres unmarked) [Compound 34] |
| 1.03 |  |  | NC(=O)C(=O)C(Cc1ccccc1)NC(=O)c1nsnc1-c1cnccn1 (centres unmarked) [Compound 35] |
| 0.75 |  |  | Cc1c(F)cccc1-c1nsnc1C(=O)NC(Cc1ccccc1)C(=O)C(N)=O (centres unmarked) [Compound 36] |
| 0.65 |  |  | Cn1cc(C(=O)NC(Cc2ccccc2)C(=O)C(N)=O)c(-c2cccc3cn[nH]c23)n1 (centres unmarked) [Compound 37] |
| 0.65 |  |  | Cn1cc(C(=O)NC(Cc2ccccc2)C(=O)C(N)=O)c(-c2cccc3oc(=O)[nH]c23)n1 (centres unmarked) [Compound 38] |
| 0.533 |  |  | Cc1cncc(-c2nn(C(F)F)cc2C(=O)NC(Cc2ccccc2)C(=O)C(N)=O)c1 (centres unmarked) [Compound 39] |
| 0.467 |  |  | Cc1nc(-c2ccccc2F)c(C(=O)NC(Cc2ccccc2)C(=O)C(=O)O)o1 (centres unmarked) [Compound 40] |
| 0.45 |  |  | Cn1cc(C(=O)NC(Cc2ccccc2)C(=O)C(N)=O)c(-c2cccc3c2OC(F)(F)O3)n1 (centres unmarked) [Compound 41] |
